Here are results for 11 compounds from patent US7666619B2, “Compounds and methods for regulating bacterial growth and pathogenesis” (Princeton University, priority 2000, dated 2010).

In assay [1] the test system is V. harveyi reporter strain BB170 (Sensor 1−, Sensor 2+). The experiment in a line: V. harveyi luminescence assay, test strain BB170 (AI-2 bioassay). The class given is cell-based, Vibrio harveyi. To be noted: for signaling activity (induction of luminescence): control experiments, reporter strain BB170. The procedure: FIG. 16 panels C and D show the effect of the same compounds on control strain JAF78. Strain BB170 synthesizes AI-2 starting at 4.5 hours into the assay. Light produced at the start of the assays is from AI-2 carried over from cells diluted from stationary phase. Strain JAF78 is a mutant strain in which light production is “locked on” and is unaffected by the presence or absence of autoinducer. Increase in light over the time course reflects increase in cell population density.
Density-dependent Bioluminescence Assay. […] The cell density was measured by diluting the same aliquots of cells used for measuring luminescence, spreading the dilutions onto solid LM medium, incubating the plates overnight at 30° C., and counting the resulting colonies the following day. Relative Light Units are (counts min^−1 ml^−1×10^3)/(colony forming units ml^−1). Cell-free culture supernatants from V. harveyi or S. typhimurium strains were added to a final concentration of 10% (v/v) at the time of the first measurement. In control experiments, 10% (v/v) of AB medium, LB medium or LB medium containing 0.5% glucose was added instead of cell-free culture fluids.
Assay for Production of Signaling Molecules. Cell-free culture fluids from E. coli, S. typhimurium and V. harveyi strains were tested for the presence of signaling substances that could induce luminescence in the V. harveyi reporter strain BB170 or BB886. In the assays, 10 μl of cell-free culture fluids from E. coli AB1157, E. coli DH5α, and S. typhimurium LT2 strains grown and harvested as described above were added to 96-well microtiter dishes. The V. harveyi reporter strain BB170 or BB886 was grown for 16 h at 30° C. with aeration in AB medium, diluted 1:5000 into fresh AB medium, and 90 μl of the diluted cells were added to the wells containing the E. coli and S. typhimurium cell-free culture fluids. Positive control wells contained 10 μl of cell-free culture fluid from strain V. harveyi BB152 (Autoinducer-1^−, Autoinducer-2^+) or V. harveyi BB120 (Autoinducer-1^+, Autoinducer-2^+). Negative control wells contained 10 μl of sterile growth medium. The microtiter dishes were shaken in a rotary shaker at 175 rpm at 30° C.
Bioluminescence Assay. […] Cell-free culture fluids from V. harveyi, E. coli, or S. typhimurium strains to be tested for AI-2 activity were prepared as described above, and assayed at 10% (v/v). AI-2 activity is reported as the fold-induction of the reporter strain over background, or as the percent of the activity obtained from V. harveyi BB120 (wild type) cell-free culture fluid.

Assay [2] concerns Staphylococcus aureus ATCC 25923. The experiment in a line: Antibiotic susceptibility assay (NCCLS broth microdilution). The format is cell-based. The following applies: with 2-ethyl-4-hydroxy-5-methyl-3(2H)-furanone at 25 μg/ml. On the procedure:
(§1) Antimicrobial susceptibility testing was conducted according to the National Committee for Clinical Laboratory Standards (NCCLS) reference method “Broth Dilution Procedure (Microdilution)” published January 1977 (UPDATE VERSION). The method yields a minimum inhibitory dose (MIC) required for complete inhibition of bacterial growth. MICs were determined using a dilution series of antibiotic, in which all of the wells contained a constant concentration of the inhibitor compound was maintained. In addition, before the instant susceptibility tests were performed, the inhibitor compounds were tested in the appropriate inhibitor screens (See, for example, FIG. 32 for the AI-2 inhibitor 2-ethyl-4-hydroxy-5-methyl-3(2H)-furanone). […] Experiments were conducted in 96 well microtiter plates using a final volume of 0.1 ml/well. Assays were conducted using either Mueller-Hinton broth, Todd-Hewitt broth, or Nutrient Broth (Difco). The bacterial innoculum was prepared from a log phase overnight culture of Streptococcus pyogenes ATCC 19615 or Staphylococcus aureus ATCC 25923. Turbidity of the cultures was adjusted with saline to 0.05 McFarland standard (10^7 CFU/ml), and 5 microliters of this innoculum was added to each well. The inhibitor compounds were prepared by dissolving a stock solution in water. Working stocks of quorum inhibitors compounds were made by diluting the stock solutions with bacterial broth. Sodium salts of the antibiotics were used in these experiments. A stock solution (10 mg/ml) was prepared as stipulated by the manufacturer by dissolving a weighed amount of antibiotic in water or DMSO. All antibiotics were added in two-fold serial dilutions to a series of wells to yield final concentrations ranging from 100 μg/ml to 0.1 μg/ml. The single exception was sulfisoxazole where the range of final doses ranged from 300 μg/ml to 2.5 μg/ml. Bacterial broth was used as the diluent. The range of antibiotic concentrations used were chosen to be at and below the MIC for the antibiotic alone. Cultures were sealed and incubated for 20 hours at 37° C. MIC values were determined by spectrophotometric measurements of absorbance at 600 nm. […] Fold-changes in MIC concentration were determined by comparing the MIC for antibiotic and quorum inhibitor compounds with the MIC measured using antibiotic alone.
For orientation: In broth dilution the organism is exposed to a series of concentrations in liquid medium.

The subject of assay [3] is MM32 indicator strain (LuxS−, LuxN−) of V. harveyi. The assay is described as follows: MM32 bioluminescence assay. The class given is cell-based, Vibrio harveyi. To be noted: autoinducer-2 25 μg/ml, QXP-048 25 μg/ml. On the procedure:
The MM32 indicator strain (LuxS−, LuxN−) of V. harveyi was incubated with various doses of AI-2 and the bioluminescence signal measured at various time points during a 6-hour incubation.
Exogenous synthetic autoinducer-2 was added at the outset of the assay at a final concentration of 25 μg/ml. QXP-048 was added at the outset of the assay at a final concentration of 25 μg/ml. […] Exogeneous synthetic autoinducer-2 was added at the outset of the assay to a final concentration of 25 μg/ml. QXP-048 was added at the outset of the assay at a final concentration of 25 μg/ml.
The invention provides a luxN− and luxS− strain of V. harveyi, designated MM32, for identifying inhibitors of the quorum-sensing pathway. […] Further, since MM32 cannot produce AI-2, addition of exogenous AI-2 or its analogs allows rapid identification of inhibitors of AI-2.

Assay [4] deals with Streptococcus pyogenes ATCC 19615. The assay is described as follows: Antibiotic susceptibility assay (NCCLS broth microdilution). The format is cell-based. To be noted: for MIC: Streptococcus pyogenes, ATCC19615. On the procedure:
as §1

Another assay concerns AI-2. The assay is described as follows: Inhibition of AI-2 initiated activation of a biochemical pathway. From the text:
It is an object of the invention to provide compounds and methods for regulating the activity of autoinducer-2 receptors such as LuxP or LuxQ. Compounds of the invention include those that interact with LuxP or LuxQ. Specifically, the invention provides a method for the regulation of LuxP or LuxQ protein resulting in the regulation of bacterial cell growth or the regulation of bacterial pathogenicity by regulating the expression of a factor associated with bacterial virulence. The method of the invention envisions contacting LuxP or LuxQ with pentenomycin, or derivatives thereof, such that LuxP or LuxQ activity is regulated. Pentenomycin has previously been identified as having antibiotic activity. […] The chemical structure of pentenomycin, and derivatives thereof (see below), is/are similar to that of the structure of autoinducer-2 as identified in the present study.

Assay [5] concerns V. harveyi strains MM32, BB120, BB170. The assay is described as follows: Microtiter crystal violet biofilm formation assay. The class given is cell-based, Vibrio harveyi. The following applies: null mutant (AI-1−/AI-2−) V. harveyi. The procedure:
Biofilm formation was measured using a microtiter-based assay. Free-swimming (planktonic) bacteria were cultured in AB or LB media supplemented with glucose in 96 well microtiter dishes. Biofilms typically formed along the walls of the wells at the interface of the liquid and air phase. At the end of the incubation, aliquots of a crystal violet solution (stock 0.1%) were added to the wells to stain both the adherent and the non-adherent cells. The wells were then washed with deionized water to remove non-adherent cells, and the bound crystal violet solubilized with 200 microliters of water. Absorbance reading at 600 nm (A600) were used to quantitate the amount of crystal violet dye that had adhered to the biofilms. When indicated, synthetic AI-2 was added to the wells at the beginning of the cultures.
Various amounts of synthetic AI-2 were added to the initial free-swimming bacterial cultures in LB media supplemented with glucose, and biofilm formation measured at the end of the incubation.

The test system of assay [6] is sensor-1+, sensor-2− mutant (BB886). The experiment in a line: Microtiter luminescence assay with AI-1 and strain BB886. The class given is cell-based, Vibrio harveyi. To be noted: non self-stimulating strain BB886.
Assay [7] concerns Streptococcus pyogenes ATCC 19615. The assay is described as follows: Cell growth monitored by absorbance at 600 nm. The format is cell-based. The following applies: 2.4 μg/ml or 2.5 mg/ml. On the procedure: Streptococcus pyogenes ATCC 19615 was grown in the presence of either 2.4 μg/ml or 2.5 mg/ml of compound QXP-035. Cell growth was monitored by taking periodic measurements of absorbance at 600 nm.

Each structure is given as a SMILES string. In brackets after ≈: the same amount, converted by molar mass. Read-outs that look alike come from different tables or passages of the source.

As for `N[C@H]1CCOC1=O` [homoserine lactone], the “signaling activity (induction of luminescence)” value (shortened to “signaling activity”) in assay [1] was “lacked activity”.

`O=C(O)CCC(=O)C(=O)O` [-ketoglutarate]: the “signaling activity” value in assay [1] is listed as “lacked activity”.

On to `CC1(C)S[C@@H]2[C@H](NC(=O)[C@H](N)c3ccccc3)C(=O)N2[C@H]1C(=O)O` [ampicillin], for which the “MIC of antibiotic combined with quorum inhibitor” value (shortened to “MIC … with quorum inhibitor”) in assay [2] came out at 0.4 µg/mL. Regarding `COC1(c2ccccc2)OC=C(c2ccccc2)C1=O` (centres unmarked) [QXP-048, 2-methoxy-2,4-diphenyl-3(2H)furanone], in assay [3], the “effect on signal from exogenous synthetic autoinducer-2” value is reported as “inhibitory capability”.

`CN[C@H](CC(C)C)C(=O)N[C@H]1C(=O)N[C@@H](CC(N)=O)C(=O)N[C@H]2C(=O)N[C@H]3C(=O)N[C@H](C(=O)N[C@H](C(=O)O)c4cc(O)cc(O)c4-c4cc3ccc4O)[C@H](O)c3ccc(c(Cl)c3)Oc3cc2cc(c3O[C@@H]2O[C@H](CO)[C@@H](O)[C@H](O)[C@H]2O[C@H]2C[C@](C)(N)[C@H](O)[C@H](C)O2)Oc2ccc(cc2Cl)[C@H]1O` [vancomycin]: the “synergy in combination with 2-ethyl-4-hydroxy-5-methyl-3(2H)-furanone” value in assay [4] is on record as “marked synergies”. The MIC in assay [4] was around 100 µg/mL (≈ 69 µM). Besides, the “MIC … with quorum inhibitor” value is recorded as “approximately the same MIC” in assay [4] (with 2-ethyl-4-hydroxy-5-methyl-3(2H)-furanone at 5 μg/ml, compared with vancomycin alone); “approximately 1.6 micrograms/milliliter” in assay [4] (with 2-ethyl-4-hydroxy-5-methyl-3(2H)-furanone at 12.5 μg/ml); “the same MIC” in assay [4] (with 2-ethyl-4-hydroxy-5-methyl-3(2H)-furanone at 50 μg/ml, compared with 12.5 μg/ml). `OC[C@H]1OC(O)[C@H](O)[C@@H](O)[C@@H]1O` (some centres unmarked) [Glucose]: in assay [1], the “signaling activity” value was “lacked activity”. Regarding `O=C1C=C[C@H](O)[C@@]1(O)CO` [pentenomycin], the “effect on AI-2 initiated activation of a biochemical pathway” value with AI-2 is on record as “acts as an inhibitor”. As for `C[C@@H](O)CC(=O)N[C@H]1CCOC1=O` [AI-1, N-(3-hydroxybutanoyl)-L-homoserine lactone, reference compound], the “biofilm production after addition to the medium” value in assay [5] is reported as “allows (AI-1−/AI-2−) V. harveyi to produce biofilm”. Besides, the “lowest concentration to which the assay was sensitive” value in assay [6] is 100 nM.

On to `CC(=O)O` [acetate], for which, in assay [1], the “signaling activity” value is recorded as “lacked activity”. On to `Cc1noc(NS(=O)(=O)c2ccc(N)cc2)c1C` [sulfisoxazole], for which the “synergy in combination with 2-ethyl-4-hydroxy-5-methyl-3(2H)-furanone” value in assay [4] is on record as “marked synergies”. The MIC in assay [4] (compound alone, read-out: MIC) is around 300 µg/mL (≈ 1120 µM). The “MIC … with quorum inhibitor” value in assay [4] (with 2-ethyl-4-hydroxy-5-methyl-3(2H)-furanone at 100 micrograms per milliliter) is given as “approximately 100 μg/ml”. With `CCC1OC(C)=C(O)C1=O` (centres unmarked) [QXP-035, 2-ethyl-4-hydroxy-5-methyl-3(2H)-furanone], the “effect on cell growth” value in assay [7] is “did not inhibit cell growth”. For the same compound, the “effect on AI-2-dependent bioluminescence” value in assay [1] (BB170, various amounts, monitored over time) is given as “inhibition of bioluminescence”. For the same compound, the MIC in assay [4] (compound alone, read-out: MIC) was above 100 µg/mL.

One may read the MIC as the smallest concentration in the dilution series that meets the test's criterion for growth inhibition.
